Reference: patent US12636385B2, “Selective ligands for tau aggregates” (Sentonix, Inc., priority 2018, dated 2026)

Molecular target: T1, 0N4R Tau fibrils (Homo sapiens, UniProt P10636)
T1 construct: made in house
Assay: ^3H-THK5117 competition binding to tau fibrils in vitro
Conditions: 3 nM [^3H]-THK5117, recombinant 0N4R tau fibrils; average if run more than once
Experimental: Preparation of recombinant 0N4R Tau fibrils was performed as previously described in Morozova, O. A., Biochemistry (2013), Vol., 52(40), pages 6960-6967. Competition binding experiments to 0N4R Tau fibrils were performed by incubating increasing concentrations [10^−10-10^−6 M] of the Example compounds of the invention, or the known tau specific ligand PBB3 (PBB3 was synthesized as previously described in M. Maruyama, et al, Neuron 2013, 79, 1094-1108) or MK6240 (Novandi Chemistry AB), in the presence of 3 nM of the known tau ligand [^3H]-THK5117 (Novandi Chemistry) and 0.2 mM 0N4R tau fibrils in binding buffer (50 mM Tris-HCl, pH 7.4, 0.1% BSA) for 1 h in the dark, and at 22° C. The incubation was terminated by filtration through a Whatman GF/B glass filter (Whatman International, Kent, UK) using a Brandel cell harvester. The filter was then washed rapidly four times with 3 mL of ice-cold wash buffer (5 mM Tris-HCl, 0.25 mM NaCl, 5% EtOH), and equilibrated for 1 h in scintillation vials containing 5 mL of Ultima Gold scintillation fluid before being analysed using a Liquid Scintillation Analyzer.
The results are shown in Table 2 in the column labeled “Tau IC50”.
Relative selectivity for tau compared to Aβ for the exemplified compounds was calculated using the results for the [^3H]-THK5117 tau and [^3H]-AZD2184 Aβ assays described above. The calculated results are shown in Table 2 in the column labeled “Selectivity for tau relative to Aβ”.

T1 sequence (P10636 1-383 isoform P10636-6): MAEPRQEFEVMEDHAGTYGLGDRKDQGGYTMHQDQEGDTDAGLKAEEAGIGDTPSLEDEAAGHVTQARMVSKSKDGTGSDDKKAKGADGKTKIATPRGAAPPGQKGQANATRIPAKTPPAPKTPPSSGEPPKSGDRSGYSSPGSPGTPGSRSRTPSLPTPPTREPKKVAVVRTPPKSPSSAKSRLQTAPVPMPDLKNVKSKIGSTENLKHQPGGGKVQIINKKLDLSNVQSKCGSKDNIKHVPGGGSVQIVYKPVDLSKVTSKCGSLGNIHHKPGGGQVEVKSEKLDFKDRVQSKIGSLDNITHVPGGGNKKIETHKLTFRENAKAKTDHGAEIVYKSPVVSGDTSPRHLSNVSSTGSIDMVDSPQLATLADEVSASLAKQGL

Row | IC50 | SMILES
1 | 19 nM | OCC1CCN(c2ccc(-c3nc4ccccc4s3)cn2)CC1 [Compound 1]
2 | 7 nM | FCC1CCN(c2ccc(-c3nc4ccccc4s3)cn2)CC1 [Compound 2]
3 | 43 nM | OC1CCN(c2ccc(-c3nc4ccccc4s3)cn2)CC1 [Compound 4]
4 | 8 nM | Cc1ccc(S(=O)(=O)OCCC2CCN(c3ccc(-c4nc5ccccc5s4)cn3)CC2)cc1 [Compound 8]
5 | 6 nM | FCCC1CCN(c2ccc(-c3nc4ccccc4s3)cn2)CC1 [Compound 9]
6 | 31 nM | NC(=O)COC1CCN(c2ccc(-c3nc4ccccc4s3)cn2)CC1 [Compound 10]
7 | 64 nM | OCCC1CCN(c2ccc(-c3nc4ccccc4o3)cn2)CC1 [Compound 11]
8 | 17 nM | CS(=O)(=O)OCCC1CCN(c2ccc(-c3nc4ccccc4o3)cn2)CC1 [Compound 12]
9 | 13 nM | FCCC1CCN(c2ccc(-c3nc4ccccc4o3)cn2)CC1 [Compound 13]
10 | 22 nM | c1ccc2oc(-c3ccc(N4CCCCC4)nc3)nc2c1 [Compound 14]
11 | 39 nM | COC1CCN(c2ccc(-c3nc4ccccc4o3)cn2)CC1 [Compound 15]
12 | 59 nM | CC1CCN(c2ccc(-c3nc4ccccc4o3)cn2)CC1 [Compound 16]
13 | 73 nM | N#CC1CCN(c2ccc(-c3nc4ccccc4o3)cn2)CC1 [Compound 17]
14 | 39 nM | OCCC1CCN(c2ccc(-c3nc4cnccc4o3)cn2)CC1 [Compound 18]
15 | 76 nM | CS(=O)(=O)OCCC1CCN(c2ccc(-c3nc4cnccc4o3)cn2)CC1 [Compound 19]
16 | 60 nM | FCCC1CCN(c2ccc(-c3nc4cnccc4o3)cn2)CC1 [Compound 20]

Row | IC50 | SMILES
17 | 32 nM | COS(=O)(=O)CCC1CCN(c2ncc(-c3cc4ccccc4o3)cn2)CC1 [Compound 29]
18 | 15 nM | OCCOC1CCN(c2ncc(-c3cc4ccccc4o3)cn2)CC1 [Compound 31]
19 | 32 nM | NC(=O)COC1CCN(c2ncc(-c3cc4ccccc4o3)cn2)CC1 [Compound 34]
20 | 100 nM | OCCC1CCN(c2ccc(-c3cc4ccccc4o3)nn2)CC1 [Compound 35]
21 | 14 nM | OCCC1CCN(c2ccc(-c3nc4ccc(OCC(O)CF)cc4s3)cn2)CC1 (centres unmarked) [Compound 37]
22 | 10 nM | NC(=O)c1ccc2nc(-c3cnc(N4CCC(CCO)CC4)nc3)sc2c1 [Compound 41]
23 | 15 nM | CS(=O)(=O)OCCC1CCN(c2ncc(-c3nc4ccc(C(N)=O)cc4s3)cn2)CC1 [Compound 42]
24 | 4 nM | CCOC(=O)c1ccc2nc(-c3cnc(N4CCC(CCF)CC4)nc3)sc2c1 [Compound 44]
25 | 49 nM | OCCC1CCN(c2ncc(-c3nc4ccccc4[nH]3)cn2)CC1 [Compound 49, 2-{1-[5-(1H-1,3-Benzodiazol-2-yl)pyrimidin-2-yl]piperidin-4-yl}ethan-1-ol]
26 | 4 nM | OCCC1CCN(c2ccc(-c3cc4ccccc4s3)cn2)CC1 [Compound 50, 2-{1-[5-(1-Benzothiophen-2-yl)pyridin-2-yl]piperidin-4-yl}ethan-1-ol]
27 | 13 nM | COc1ccc2[nH]c(-c3ccc(N4CCC(CCO)CC4)nc3)cc2c1 [Compound 51, 2-{1-[5-(5-Methoxy-1H-indol-2-yl)pyridin-2-yl]piperidin-4-yl}ethan-1-ol]
28 | 7 nM | OCC1CCN(c2ccc(-c3nc4ccc(O)cc4s3)cn2)CC1 [Compound 55]
29 | 5 nM | CCOC(=O)c1ccc2nc(-c3cnc(N4CCC(CCO)CC4)nc3)sc2c1 [Compound 59]
30 | 19 nM | O=C(NCCF)c1ccc2nc(-c3cnc(N4CCC(CCO)CC4)nc3)sc2c1 [Compound 61]
31 | 2.3 nM | CCOC(=O)C1CCN(c2ccc(-c3cc4ccc(OC)cc4[nH]3)c(F)n2)CC1 [Compound 63, Ethyl 1-[6-Fluoro-5-(6-methoxy-1H-indol-2-yl)pyridin-2-yl]piperidine-4-carboxylate]
32 | 24 nM | CNC(=O)c1ccc2cc(-c3ccc(N4CCC(CO)CC4)nc3F)[nH]c2c1 [Compound 64, 2-{2-Fluoro-6-[4-(hydroxymethyl)piperidin-1-yl]pyridin-3-yl}-N-methyl-1H-indole-6-carboxamide]
